Data reported in patent US8153686B2 (Theravance, Inc., priority 2008, dated 2012).
pKi: −log10 of the molar value. Where two headings read alike, the source gives them in different places. Each block holds one compound with its values, some of them ahead of it.

Columns and labels:
human mu opioid receptor [1] = molecular target: T1, human mu opioid receptor (Homo sapiens, UniProt P35372); experiment: Radioligand binding assay, human mu opioid receptor; settings: for Ki: displacement of [3H]-Diprenorphine 0.5 nM, CHO-K1 cell membranes, read-out: pKi at the human mu opioid receptor (converted)
human mu opioid receptor [2] = molecular target: T1, human mu opioid receptor; experiment: Human mu [35S]GTPγS nucleotide exchange assay (agonist mediated activation); format: biochemical; settings: read-out: intrinsic activity (IA)
[3] = system: loperamide-induced delayed gastric emptying; experiment: Rat gastric emptying assay (reversal of loperamide-induced delayed gastric emptying); format: in vivo; settings: administered orally, loperamide 1 mg/kg s.c., gastric emptying model
Protocol: Assay 3: Rat Model of In Vivo Efficacy In this assay the efficacy of test compounds was evaluated in a model of gastrointestinal transit, which evaluates peripheral activity. This study was approved by the Institutional Animal Care and Use Committee at […]. and conformed to the Guide for the Care and Use of Laboratory Animals published by the National Academy of Sciences (©1996). a. Rat Gastric Emptying Assay Test compounds were evaluated in the rat gastric emptying assay to determine their ability to reverse loperamide-induced delayed gastric emptying. Rats were fasted up overnight prior to administration of test compounds or vehicle by intravenous, subcutaneous, intramuscular or oral routes of administration at doses ranging from 0.001 to about 30 milligrams/kilogram (mg/kg). The administration of test compound was followed by subcutaneous administration of loperamide at a dose of 1 mg/kg or vehicle. Five minutes post loperamide or vehicle administration, a non-nutritive, non-absorbable charcoal meal was administered via oral gavage and animals were allowed free access to water for the sixty minute duration of the experiment. Animals were then euthanized via carbon dioxide asphyxiation followed by thoracotomy and the stomach was carefully excised. The stomach was ligated at the lower esophageal sphincter and the pyloric sphincter to prevent additional emptying during tissue removal. Gastric weight was then determined after removal of the ligatures. b. Data Analysis and Results Data was analyzed using the GraphPad Prism Software package (GraphPad Software, Inc., San Diego, Calif.). Percent reversal curves were constructed by non-linear regression analysis using the sigmoidal dose response (variable slope) model and best-fit ID50 values were calculated. Curve minima and maxima were fixed to loperamide control values (indicating 0% reversal) and vehicle controls (indicating 100% reversal), respectively. Results are expressed as ID50, the dose required for 50% reversal of the effects of loperamide, in milligrams per kilogram.

[4] = bound [35S]GTPγS relative to DAMGO (IA=100), CHO-K1 membranes expressing human mu opioid receptor

T1 sequence (P35372 whole entry): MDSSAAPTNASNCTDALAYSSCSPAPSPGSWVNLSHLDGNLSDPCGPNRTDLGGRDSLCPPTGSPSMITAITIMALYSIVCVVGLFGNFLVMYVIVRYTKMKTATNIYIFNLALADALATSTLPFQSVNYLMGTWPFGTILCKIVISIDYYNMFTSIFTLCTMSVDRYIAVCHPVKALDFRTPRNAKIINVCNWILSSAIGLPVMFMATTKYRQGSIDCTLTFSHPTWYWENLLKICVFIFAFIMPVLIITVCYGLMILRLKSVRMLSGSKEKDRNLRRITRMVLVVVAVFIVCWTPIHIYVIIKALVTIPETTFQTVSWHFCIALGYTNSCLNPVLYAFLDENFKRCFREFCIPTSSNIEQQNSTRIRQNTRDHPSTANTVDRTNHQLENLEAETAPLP

SMILES: CO[C@@H]1Cc2ccc(C(N)=O)cc2C(C)(C)[C@H]1NCCCNC(=O)C1CCCCC1 (relative stereo) [Example 1, trans-7-[3-(Cyclohexanecarbonyl-amino)-propylamino]-6-methoxy-8,8-dimethyl-5,6,7,8-tetrahydro-naphthalene-2-carboxylic acid amide]
Ki (human mu opioid receptor [1]): 0.158 nM
Emax (human mu opioid receptor [2]; [4]): 10%
ID50, dose required for 50% reversal of the effects of loperamide [3]: 0.5 mg/kg

SMILES: COC1Cc2ccc(C(N)=O)cc2C(C)(C)C1NC[C@H](N)Cc1ccccc1 (single isomer, unassigned) [Example 8]
pKi (human mu opioid receptor [1]): 8.80
Emax (human mu opioid receptor [2]): -7%

SMILES: CO[C@H]1Cc2ccc(C(N)=O)cc2C(C)(C)[C@@H]1NCCCNC(=O)CC(C)(C)C [Example 12, (6S,7S)-7-[3-(3,3-Dimethyl-butyrylamino)-propylamino]-6-methoxy-8,8-dimethyl-5,6,7,8-tetrahydro-naphthalene-2-carboxylic acid amide]
Ki (human mu opioid receptor [1]): 0.0631 nM
ID50, dose required for 50% reversal of the effects of loperamide [3]: 0.11 mg/kg

Continued, in another order:

Ki (human mu opioid receptor [1]): 0.2 nM
Emax (human mu opioid receptor [2]; [4]): 1%
SMILES: CO[C@@H]1Cc2ccc(C(N)=O)cc2C(C)(C)[C@H]1NCCCNC(=O)CC(C)(C)C (relative stereo) [Example 11, trans-7-[3-(3,3-Dimethyl-butyrylamino)-propylamino]-6-methoxy-8,8-dimethyl-5,6,7,8-tetrahydro-naphthalene-2-carboxylic acid amide]
ID50, dose required for 50% reversal of the effects of loperamide [3]: 0.4 mg/kg

Ki (human mu opioid receptor [1]): 0.126 nM
Emax (human mu opioid receptor [2]; [4]): -2%
SMILES: CO[C@@H]1Cc2ccc(C(N)=O)cc2C(C)(C)[C@H]1NCCCNC(=O)c1ccccc1 (relative stereo) [Example 16, trans-7-(3-Benzoylamino-propylamino)-6-methoxy-8,8-dimethyl-5,6,7,8-tetrahydro-naphthalene-2-carboxylic acid amide]
ID50, dose required for 50% reversal of the effects of loperamide [3]: 0.63 mg/kg
